Here are results for two compounds from patent US20230310479A1, “LOW DOSE ADJUVANT EPIGENETIC CANCER THERAPY” (THE JOHNS HOPKINS UNIVERSITY, priority 2019, published 2023).

The conditions of data set [1]: cited from earlier work.
In another data set the test system is CCR2. Description: CCR2 expression in monocytic MDSCs (cDNA array, quantitative PCR, FACS). The data set is classed as in vivo, mouse. The following applies: three days of treatment, 30 or 75 mg/kg/d orally, LLC mice. The source says: FIGS. 2A-2G. […] FACS and graphs showing percentages and absolute numbers of the donor-derived-cell subset (CD45.1^+ cells) in both lungs of the recipient LLC mice (n=3 mice per group). FIG. 2C: Cell-sorting schema for collecting monocytic MDSCs on day 3 after resection (left). Volcano plots showing differences in RNA expression of monocytic MDSCs from the bone marrow (BM) or lung between low-dose-AET-and vehicle-treated LLC mice (right) (n=3 biological replicates). FIG. 2D: Agilent cDNA array expression of chemokines and chemokine receptors in monocytic MDSCs from bone marrow or lungs of low-dose-AET-and vehicle-treated LLC mice (n=3 biological replicates). False-discovery-rate (FDR)-adjusted P values of CCR2 are 0.005 (bone marrow) and 0.016 (lung). Cxcr7 is also known as Ackr3. […] In the FACS plot, red represents low-dose AET and blue represents mock treatment. […]
FIGS. 10A-10H. […] CD45.1^+ cells (transferred polymorphonuclear MDSCs) were identified in the lungs of the recipient mice and analyzed by flow cytometry (right, n=3 mice per group). […] CD45.1^+ cells (transferred polymorphonuclear MDSCs) were identified in the lungs of the recipient CD45.2 mice and analyzed by flow cytometry at 18 h after transfer (right, n=3 mice per group). […] Gene-set enrichment P values, NES values and FDR values reported are calculated with 1,000 permutations in the GSEA software. […]

Each structure is given as a SMILES string. Like-named read-outs stand apart in the source and are kept apart here.

For `Nc1ncn([C@@H]2O[C@H](CO)[C@@H](O)[C@H]2O)c(=O)n1` [5-azacitidine, 4-amino-1-β-D-ribofuranozyl-s-triazin-2(1H)-one], the solubility entry in data set [1] (in acetone, ethanol and methyl ketone) is recorded as “insoluble”; in data set [1] (in dimethylsulfoxide (DMSO)), “soluble”; in data set [1] (in ethanol/water (50/50), propylene glycol and polyethylene glycol), “slightly soluble”; in data set [1] (in water, water-saturated octanol, 5% dextrose in water, N-methyl-2-pyrrolidone, normal saline and 5% Tween 80 in water), “sparingly soluble”.

For `Cc1ccc2nc(NCCN)c3ncc(C)n3c2c1` [BMS-345541], the “expression of CCR2 in monocytic MDSCs from bone marrow in vivo” value in the data set with CCR2 is given as “decreased expression”.
